{
  "source": "patent US20100083405A1",
  "about": "“Method For Controlling Seed Germination In Non-Dormant Seeds And Use Thereof” (priority 2008, published 2010)",
  "key": {"[1]": {"test_system": "WT seed", "experiment": "Germination assay, WT seeds", "type": "in vivo, Arabidopsis", "conditions": "low PAC concentrations (0.125 μM)", "text": "(§1) Wild type (WT) Arabidopsis (Columbia ecotype) was used. The transgenic Arabidopsis line (Ler ecotype) constitutively overexpressing and accumulating ABI5 protein fused to hemagglutinin (HA) peptide tag (referred to as WT/35S::HA-ABI5 plants) was generated as described in Lopez-Molina et al., 2001, above. Transgenic Arabidopsis lines were generated using the Agrobacterium tumefaciens vacuum-infiltration method (Bechtold and Pelletier, 1998, Methods Mol. Biol. 82, 259-266). Seeds (T1) from infiltrated plants were plated in selection medium as described (Zuo et al., 2000, above; Lopez-Molina et al., 2001, above). Non-dormant seeds are used in absence of seed stratification procedure. The infiltration in the plant ovule is performed following the standard “Floral Dip” (Arabidopsis protocol Edited by J M Martinez-Zapater and Julio Salina. Humana Press, “In Planta Agrobacterium-Mediated Transformation of Adult Arabidopsis thaliana Plants by Vacuum infiltration”, Page 259).\n(§2) When seeds are sown under “normal conditions” it refers to conditions where seeds are imbibed in a standard germination medium and provided with light (germination assay condition below). “ABA conditions” and “low GA conditions” are respectively conditions where ABA (e.g. 5 μM) and paclobutrazol (e.g. 5 μM, PAC), an inhibitor of GA synthesis, are added to the medium. […]"}, "[2]": {"test_system": "ABI5", "experiment": "ABI5 mRNA and protein levels (Northern and Western blot) in WT seeds", "type": "in vivo, Arabidopsis", "method": "Total RNA extraction was performed as described by Vicient and Delseny, 1999, Anal. Biochem., 268, 412-413. Northern blot hybridizations were by standard procedures; RNA immobilized on membranes was stained with methylene blue and used as a loading control (Sambrook et al., 1989, above). For ABI5, full length ORF DNA probe (SEQ ID NO: 1) were amplified from cDNA with 5′[…] (SEQ ID NO: 8) 5′ […] (SEQ ID NO: 9).\nThe mRNA and protein expression of ABI5 was characterized in WT (Columbia ecotype) seeds at different times after their imbibition.\nUnder normal conditions, ABI5 mRNA and protein levels decreased from peak levels in WT dry seeds (DS) to undetectable levels 24 h to 48 h after imbibition as shown respectively by Northern blot (2 μg of total RNA per lane) and Western blot analyses (10 μg of total protein per lane), where protein extracts were stained with red Ponceau prior to incubation with antibodies against ABI5 (Ponceau) (FIGS. 2A and 2B) (Lopez-Molina et al., 2001, above)."}, "[3]": {"test_system": "WT/35S::HA-ABI5 seeds", "experiment": "Germination assay, WT/35S::HA-ABI5 seeds", "type": "in vivo, Arabidopsis", "text": "as §1, §2"}, "[4]": {"test_system": "HA-ABI5", "experiment": "HA-ABI5 mobility/phosphorylation (Western blot) in WT/35S::HA-ABI5 seeds", "type": "in vivo, Arabidopsis", "method": "(§3) The methods used were as described in Lopez-Molina et al., 2001, above.\nThus, low GA levels also stimulate ABI5 activity and phosphorylation. […] An antibody to HA was used to reveal HA-ABI5 protein. λ phosphatase was inactivated by heat (65° C. for 20 min)."}, "[5]": {"test_system": "WT/35S::HA-ABI5 plants transformed with the ind::HA-PKABA1 DNA construct", "experiment": "Germination assay, WT/35S::HA-ABI5 transformed with ind::HA-PKABA1", "type": "in vivo, Arabidopsis", "method": "All seed batches compared in this study were harvested on the same day from plants grown side by side (i.e. identical environmental conditions). Dry siliques were obtained about 8 weeks after planting and left for a further 4 weeks at room temperature prior to seed harvesting. Seeds were then permanently stored at 4° C. Seeds obtained in this manner lacked dormancy. A minimum of three independently grown seed batches were used for measuring percent TR and ER. For TR and ER assays, seeds were surface sterilized as described in Lopez-Molina and Chua, 2000, above, and sown in plates with MS medium containing 0.8% (wt/vol.) Bacto-Agar (Applichem). Plates were incubated in a climate-controlled room (20-25° C., 16 h light/day, light intensity 80 ME/m^2/s, humidity 70%). Between 100 and 300 seeds were examined with a Stemi 2000 (Zeiss) stereomicroscope and photographed with a high-resolution digital camera (Canon Power G6, 7.1 Megapixels) at different times of seed imbibition. Photographs were enlarged electronically for measurement of TR and ER.\nThe first primer contains an XhoI site and the HA sequence (MYPYDVPDYASL (SEQ ID NO: 5) of SEQ ID NO:10), while the second contains a SpeI site. Both restriction sites were used for cloning into a plasmid pER8 (AN AF309825) such as described in Zuo et al., 2000, Plant J., 24, 265-273. […]"}, "[6]": {"test_system": "HA-PKABA1", "experiment": "HA-PKABA1 protein levels (Western blot) in seeds transformed with ind::HA-PKABA1", "type": "in vivo, Arabidopsis", "conditions": "50 μM 17β-estradiol, 48 h after seed imbibition, normal conditions", "text": "The first primer contains an XhoI site and the HA sequence (MYPYDVPDYASL (SEQ ID NO: 5) of SEQ ID NO:10), while the second contains a SpeI site. Both restriction sites were used for cloning into a plasmid pER8 (AN AF309825) such as described in Zuo et al., 2000, Plant J., 24, 265-273. The resulting ind::HA-PKABA1 binary vector was then transformed into previously described WT/35S::HA-ABI5 line (Zuo et al., 2000, above; Lopez-Molina et al., 2001, above). As a negative control, WT plants were transformed with the same ind::HA-PKABA1 construct."}, "[7]": {"test_system": "HA-ABI5", "conditions": "low ABA concentration 0.5 μM; cited from earlier work"}, "[8]": {"test_system": "WT/35S::HA-ABI5 seeds", "conditions": "low ABA concentration 0.5 μM; cited from earlier work"}, "[9]": {"test_system": "HA-ABI5", "experiment": "HA-ABI5 mobility/phosphorylation (Western blot) in WT/35S::HA-ABI5 lines transformed with ind::HA-PKABA1", "type": "in vivo, Arabidopsis", "conditions": "excess GA in the medium, inducer present", "method": "as §3\nThe mobility differences of HA-ABI5 protein isolated from WT/35S::HA-ABI5 lines transformed with a ind::HA-PKABA1 DNA construct are analyzed by Western blot under the indicated germination conditions. As observed upon ABA treatment, induction of HA-PKABA1 protein triggered ABI5 phosphorylation, detected as a slower ABI5 protein mobility, which could be eliminated upon phosphatase treatment (FIG. 4B)."}, "[10]": {"test_system": "ABI5", "experiment": "ABI5 protein levels (Western blot) in gal-3 seeds", "type": "in vivo, Arabidopsis", "conditions": "gal-3 seeds treated with GA, as early as 48 hours after imbibition"}, "[11]": {"target": "T1, HA-ABI5, Q9SJN0", "T1 chain": "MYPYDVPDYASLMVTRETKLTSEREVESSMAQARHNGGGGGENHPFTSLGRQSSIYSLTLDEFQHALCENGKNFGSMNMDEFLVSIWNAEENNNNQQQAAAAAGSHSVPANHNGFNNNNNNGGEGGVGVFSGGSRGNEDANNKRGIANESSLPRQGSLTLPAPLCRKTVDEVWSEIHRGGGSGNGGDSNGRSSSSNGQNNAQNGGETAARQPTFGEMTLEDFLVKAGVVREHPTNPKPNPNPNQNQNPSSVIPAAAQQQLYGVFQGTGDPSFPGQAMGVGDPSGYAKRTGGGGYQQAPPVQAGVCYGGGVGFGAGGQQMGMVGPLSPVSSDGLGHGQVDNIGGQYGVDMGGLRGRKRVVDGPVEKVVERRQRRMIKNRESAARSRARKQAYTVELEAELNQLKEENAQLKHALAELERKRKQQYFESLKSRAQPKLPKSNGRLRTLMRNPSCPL"}, "[12]": {"conditions": "GA 50 μM added to the germination medium with ABA"}},
  "data": [
    {"molecule": "CC(C)(C)[C@@H](O)[C@@H](Cc1ccc(Cl)cc1)n1cncn1", "note": "(racemic) [PAC, paclobutrazol]", "values": [
      {"measurement": "WT seed germination", "setting": "[1]", "value": "do not prevent WT seed germination"},
      {"measurement": "ABI5 expression (mRNA and protein)", "setting": "[2]; 5 μM PAC, up to 96 hours after imbibition", "value": "increased and maintained ABI5 expression"},
      {"measurement": "seeds germinated", "setting": "[3]; after one week on 0.125 μM PAC", "value": "less than 20%"},
      {"measurement": "HA-ABI5 migration in SDS-PAGE gels", "setting": "[4]; PAC 0.125 μM", "value": "slower HA-ABI5 migration"}
    ]},
    {"molecule": "C[C@]12CC[C@@H]3c4ccc(O)cc4CC[C@H]3[C@@H]1CC[C@@H]2O", "note": "[17β-estradiol]", "values": [
      {"measurement": "germination after removal of the inducer", "setting": "[5]; 24 h to 56 h upon transfer to medium without inducer (50 μM before)", "value": 100, "unit": "%"},
      {"measurement": "HA-PKABA1 protein levels", "setting": "[6]", "value": "could be detected only in presence of the inducer"}
    ]},
    {"molecule": "CC1=CC(=O)CC(C)(C)[C@@]1(O)/C=C/C(C)=C\\C(=O)O", "note": "[ABA, abscisic acid]", "values": [
      {"measurement": "HA-ABI5 phosphorylation", "setting": "[7]", "value": "triggered HA-ABI5 phosphorylation"},
      {"measurement": "ABI5 mRNA and protein expression", "setting": "[2]; ABA 5 μM, after imbibition", "value": "stimulated"},
      {"measurement": "germination response", "setting": "[8]", "value": "hypersensitive responses"}
    ]},
    {"molecule": "gibberellins [GA]", "values": [
      {"measurement": "HA-PKABA1-dependent phosphorylation of ABI5", "setting": "[9]", "value": "did not prevent HA-PKABA1-dependent phosphorylation of ABI5"},
      {"measurement": "inducer-imposed germination arrest", "setting": "[5]; additional GA 50 μM in the medium, inducer present", "value": "did not counteract the inducer-imposed arrest"},
      {"measurement": "ABI5 protein", "setting": "[10]", "value": "could not be detected"},
      {"measurement": "repression of seed germination imposed by ABA", "setting": "[3]; [12]", "value": "did not overcome the repression of seed germination imposed by ABA"},
      {"measurement": "ABA-dependent ABI5 phosphorylation", "setting": "[4]; [12]", "value": "did not alter ABA-dependent ABI5 phosphorylation"}
    ]},
    {"molecule": "HA-PKABA1 (protein) MYPYDVPDYASLMDRYEVVRDIGSGNFGVAKLVRDVRTREHFAVKFIERGHKIDEHVQREIMNHRSLKHPNIIRFKEVVLTPTHLAIVMEYASGGELFQRICNAGRFSEDEGRFFFQQLISGVSYCHSMQVCHRDLKLENTLLDGSVAPRLKICDFGYSKSSVLHSQPKSTVGTPAYIAPEVLSRREYDGKVADVWSCGVTLYVMLVGAYPFEDPDEPRNFRKTIARILSVQYSVPDYVRVSMDCIHLLSRIFVGNPQQRITIPEIKNHPWFLKRLPVEMTDEYQRGMQLADMNTPSQSLEEAMAIIQEAQKPGHNALGLAGQVACLGSMDLDDIDFDVDDIDIENSGDFVCPL", "values": [
      {"measurement": "ABI5 phosphorylation in planta, seen as slower HA-ABI5 mobility on Western blot (SDS-PAGE), sensitive to phosphatase", "setting": "[11]", "value": "induction of HA-PKABA1 protein triggered ABI5 phosphorylation, detected as a slower ABI5 protein mobility, which could be eliminated upon phosphatase treatment"}
    ]}
  ]
}
